Values after ≈ are worked out from the molar mass of the structure shown.
Tests used:
[1] = target: T1, Soybean lipoxygenase (Type I-B) (Glycine max, UniProt P08170); experiment: In vitro LOX inhibition assay; assay type: biochemical; settings: for inhibition at 25 µM / inhibition at 50 µM / inhibition at 100 µM: read-out: Anti-LOX Activity (%); for IC50: sodium linoleate substrate, tris buffer pH 9, read-out: IC50 (µM), in vitro lipoxygenase inhibitory activity
T1 construct: purchased Merck (KGaA, Darmstadt, Germany)
T1 sequence (P08170 1-839): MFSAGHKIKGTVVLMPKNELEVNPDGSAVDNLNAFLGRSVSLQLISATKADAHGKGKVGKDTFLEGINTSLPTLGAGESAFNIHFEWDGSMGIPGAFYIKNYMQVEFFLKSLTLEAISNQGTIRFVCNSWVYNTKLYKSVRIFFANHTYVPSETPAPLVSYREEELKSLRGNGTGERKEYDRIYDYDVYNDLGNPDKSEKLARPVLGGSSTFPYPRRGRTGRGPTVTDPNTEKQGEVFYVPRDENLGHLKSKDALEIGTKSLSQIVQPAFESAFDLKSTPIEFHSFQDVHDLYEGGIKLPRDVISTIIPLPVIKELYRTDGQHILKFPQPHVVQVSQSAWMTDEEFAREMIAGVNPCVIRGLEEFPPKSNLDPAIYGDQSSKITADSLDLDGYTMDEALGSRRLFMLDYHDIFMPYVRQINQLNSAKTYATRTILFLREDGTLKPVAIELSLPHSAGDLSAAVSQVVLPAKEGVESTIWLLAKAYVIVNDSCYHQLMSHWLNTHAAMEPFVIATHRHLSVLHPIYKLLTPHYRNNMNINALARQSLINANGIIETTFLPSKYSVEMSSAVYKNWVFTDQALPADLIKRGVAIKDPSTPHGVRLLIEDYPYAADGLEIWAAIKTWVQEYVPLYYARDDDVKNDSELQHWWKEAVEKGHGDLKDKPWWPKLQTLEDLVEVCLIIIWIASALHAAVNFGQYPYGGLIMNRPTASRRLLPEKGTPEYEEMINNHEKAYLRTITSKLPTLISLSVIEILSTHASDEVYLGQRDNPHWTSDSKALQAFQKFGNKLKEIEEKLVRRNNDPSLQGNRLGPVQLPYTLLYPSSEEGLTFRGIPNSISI
Source text: Soybean lipoxygenase (Type I-B) is a very often used enzyme for the investigation of anti-inflammatory properties of compounds [38]. The LOX inhibition assay measures the rate of oxidation of linoleic acid by lipoxygenase, which results in the formation of a colorless product that can be detected spectrophotometrically. This enzyme catalyzes the conversion of linoleic acid into hydroperoxy fatty acids and results in increased absorbance at 234 nm. The tested compounds dissolved in DMSO were incubated at room temperature with sodium linoleate (3 mM in tris buffer pH = 9) and enzyme solution (5 × 10^3 units/mL in saline). The activity for each tested compound was presented as IC50 value ± standard deviation (SD) of three independent measurements.

[2] = system: C. albicans ATCC 10231; experiment: Microdilution MIC/MMC with resazurin; assay type: cell-based, Candida albicans
Experimental: (§1) The antimicrobial activity of PCH-1 and PCH-2 was tested against 13 microorganisms. The experiment included four standard strains, Staphylococcus aureus ATCC 6538, Bacillus subtilis ATCC 6633, Proteus mirabilis ATCC 12453, and Pseudomonas aeruginosa ATCC 27853; five isolates, Staphylococcus aureus, Escherichia coli, Salmonella enterica, Klebsiella pneumoniae, and Bacillus subtilis; and one probiotic strain Lactobacillus plantarum 299V. Additionally, three fungal strains were tested, including one standard strain, Candida albicans ATCC 10231, and two isolates, Saccharomyces cerevisiae and probiotic strain Saccharomyces boulardii.
(§2) The bacterial suspensions were prepared using the direct colony method. The turbidity of the initial suspension was adjusted using a densitometer (DEN-1, BioSan, Latvia). When adjusted to the turbidity of the 0.5 McFarland standard, the bacterial suspension contains approximately 10^8 colony-forming units (CFU)/mL, and the yeast suspension contains approximately 10^6 CFU/mL. For the experiment, the initial suspension was further diluted at a 1:100 ratio in a sterile 0.85% saline solution.
(§3) The antimicrobial activity was assessed by determining the minimum inhibitory concentrations (MICs) and minimum microbicidal concentrations (MMCs) using the microdilution plate method with resazurin (Alfa Aesar GmbH & Co. (KG, Karlsruhe, Germany)). For this, 96-well plates were prepared by adding 100 μL of Mueller Hinton broth (Torlak, Belgrade, Serbia) for bacterial tests and Sabouraud broth (Torlak, Belgrade, Serbia) for yeast into each well. The tested PCH-1 and PCH-2 were dissolved in 10% dimethyl sulfoxide (DMSO) and then diluted into sterile distilled water. A 100 μL sample from the stock solution of the tested compound was then added to the first row of the plate, followed by twofold serial dilutions using a multichannel pipette. This produced a concentration range from 2.69 to 0.0025 µmol/L. The method is described in detail in the reported paper.
(§4) Each test setup included growth control and sterility control. […] Minimum microbicidal concentrations (MMCs) were determined as described in detail in the reported paper.

[3] = system: S. boulardii; experiment: Microdilution MIC/MMC with resazurin; assay type: cell-based, Saccharomyces boulardii
Experimental: as §1, §2, §3, §4

[4] = system: S. cerevisiae; experiment: Microdilution MIC/MMC with resazurin; assay type: cell-based, Saccharomyces cerevisiae
Experimental: as §1, §2, §3, §4

[5] = system: P. aeruginosa ATCC 27853; experiment: Microdilution MIC/MMC with resazurin; assay type: cell-based, Pseudomonas aeruginosa
Experimental: as §1, §2, §3, §4

[6] = system: P. mirabilis ATCC 12453; experiment: Inhibition of biofilm formation (crystal violet); assay type: cell-based, Proteus mirabilis
Experimental: (§5) The ability of S. aureus ATCC 6538, P. mirabilis ATCC 12453, and P. aeruginosa ATCC 27853 to form biofilms was assayed as described by O’Toole et al. (2000), with some modifications. Briefly, tissue culture 96-well microtiter plates (Sarstedt, Germany) were prepared by dispensing 100 µL of nutrient broth (i.e., Mueller Hinton broth) into each well. Then, 10 µL of spore suspension (1.0 McFarland for Gram-positive bacteria and 0.5 McFarland for Gram-negative bacteria) was added to each row. To encourage biofilm formation, all plates were incubated at 37 °C for 48 h, after which the content of each well was emptied and washed twice with 200 µL of sterile 0.85% saline to remove non-adherent cells. The biofilms formed were fixed by adding 100 µL of methanol until it evaporated completely, then stained with 0.1% (w/v) crystal violet (Fluka AG, Buchs, Switzerland) and left at room temperature for 20 min. The excess stain was washed away with deionized water, followed by […] of 96% ethanol. The optical densities (ODs) of the stained biofilms were measured with an ELISA plate reader (RT-2100C, Rayto, Shenzhen, China) at 630 nm. Control wells containing only broth were included to verify sterility and prevent nonspecific media binding. To account for background absorbance, OD readings from sterile medium, fixative, and dye were averaged and subtracted from all test measurements. All tests were conducted in duplicate. The tissue culture 96-well microtiter plates (Sarstedt, Germany) were prepared by dispensing 100 µL of nutrient broth (i.e., Mueller Hinton broth) into each well. From the stock solutions of tested PCH-1 and PCH-2 (at a concentration of 5.4 µmol/L), 100 µL was added to the first row of the microtiter plate. Twofold serial dilutions were then performed, followed by the addition of 10 µL of bacterial suspension to each well. The turbidity of the bacterial suspension was 0.5 McFarland for Gram-negative bacteria and 1.0 McFarland for Gram-positive bacteria. The microtiter plates prepared in this way were incubated at 37 °C for 48 h. The remaining steps of the experiment were carried out as outlined below. […] Only broth or broth with tested PCH-1 and PCH-2 served as controls to check sterility and nonspecific binding of media. To compensate for background absorbance, OD readings from sterile medium, extracts, fixative, and dye were averaged and subtracted from all test values. All tests were performed in duplicate.

[7] = system: K. pneumoniae; experiment: Microdilution MIC/MMC with resazurin; assay type: cell-based, Klebsiella pneumoniae
Experimental: as §1, §2, §3, §4

[8] = system: P. mirabilis ATCC 12453; experiment: Microdilution MIC/MMC with resazurin; assay type: cell-based, Proteus mirabilis
Experimental: as §1, §2, §3, §4

[9] = system: E. coli; experiment: Microdilution MIC/MMC with resazurin; assay type: cell-based, Escherichia coli
Experimental: as §1, §2, §3, §4

[10] = system: S. aureus ATCC 25923; experiment: Microdilution MIC/MMC with resazurin; assay type: cell-based, Staphylococcus aureus
[11] = system: B. subtilis ATCC 6633; experiment: Microdilution MIC/MMC with resazurin; assay type: cell-based, Bacillus subtilis
Experimental: as §1, §2, §3, §4

[12] = system: B. subtilis (isolate); experiment: Microdilution MIC/MMC with resazurin; assay type: cell-based, Bacillus subtilis
Experimental: as §1, §2, §3, §4

[13] = system: L. plantarum 299V; experiment: Microdilution MIC/MMC with resazurin; assay type: cell-based, Lactobacillus plantarum
Experimental: as §1, §2, §3, §4

[14] = system: S. aureus (isolate); experiment: Microdilution MIC/MMC with resazurin; assay type: cell-based, Staphylococcus aureus
Experimental: as §1, §2, §3, §4

[15] = system: S. enterica; experiment: Microdilution MIC/MMC with resazurin; assay type: cell-based, Salmonella enterica; settings: S. enterica
Experimental: as §1, §2, §3, §4

[16] = system: P. aeruginosa ATCC 27853; experiment: Inhibition of biofilm formation (crystal violet); assay type: cell-based, Pseudomonas aeruginosa
Experimental: as §5

[17] = system: S. aureus ATCC 25923; experiment: Inhibition of biofilm formation (crystal violet); assay type: cell-based, Staphylococcus aureus

With `NNC(=O)c1ccc(O)c(O)c1O` [H-1, 2,3,4-trihydroxybenzohydrazide] the inhibition at 25 µM [1] was 21.6 ± 1.4%, the inhibition at 40 µM [1] was 33.9 ± 0.8% and the inhibition at 50 µM [1] was 37.8 ± 1%. It also gave an inhibition at 75 µM [1] of 57.5 ± 1.1%, an inhibition at 100 µM [1] of 73.5 ± 0.6% and an IC50 [1] of 65.4 ± 0.6 µM.

Work on `OC(Cn1cncn1)(Cn1cncn1)c1ccc(F)cc1F` [Fluconazole, fluconazole, reference compound] yielded an MMC [2] of 0.2 mM, an MIC ([2]; Candida albicans, ATCC10231) of 100 µM (≈ 30.6 µg/mL) and an MMC [3] of 0.1 mM. The MIC ([3]; Saccharomyces cerevisiae) was 25 µM (≈ 7.66 µg/mL), the MMC [4] was 0.025 mM and the MIC ([4]; Saccharomyces cerevisiae) was 25 µM (≈ 7.66 µg/mL).

`CN(C)[C@@H]1C(O)=C(C(N)=O)C(=O)[C@@]2(O)C(O)=C3C(=O)c4c(O)cccc4[C@@](C)(O)[C@H]3C[C@@H]12` [Tetracycline, reference compound] gave an MMC [5] of 0.14 mM, an MIC ([5]; Pseudomonas aeruginosa, ATCC27853) of 20 µM (≈ 8.89 µg/mL) and a BIC90 ([6]; P. mirabilis ATCC 12453, 48 h) of over 2.25 mM. It also gave an IC50 ([6]; Proteus mirabilis, ATCC12453, P. mirabilis ATCC 12453, 48 h, read-out: BIC50) of 1310 µM, an MMC [7] of 0.07 mM and an MIC ([7]; Klebsiella pneumoniae) of 9 µM (≈ 4 µg/mL). The MMC [8] was 0.07 mM, the MIC ([8]; Proteus mirabilis, ATCC12453) was 35 µM (≈ 15.6 µg/mL) and the MMC [9] was 0.01 mM. The MIC ([9]; Escherichia coli) was 5 µM (≈ 2.22 µg/mL), the MMC [10] was 0.005 mM and the MIC ([10]; Staphylococcus aureus, ATCC25923) was under 1 µM. For the same compound, the MMC [11] was 0.035 mM, the MIC ([11]; Bacillus subtilis, ATCC6633) was 5 µM (≈ 2.22 µg/mL) and the MMC [12] was 0.005 mM. It also gave an MIC ([12]; Bacillus subtilis) of 2 µM (≈ 0.889 µg/mL), an MMC [13] of 0.001 mM and an MIC ([13]; Lactiplantibacillus plantarum) of under 1 µM. It also gave an MMC [14] of under 0.001 mM, an MIC ([14]; Staphylococcus aureus) of under 1 µM and an MMC [15] of 0.01 mM. It also gave a BIC90 ([16]; P. aeruginosa ATCC 27853, 48 h) of over 2.25 mM, an IC50 ([16]; Pseudomonas aeruginosa, ATCC27853, P. aeruginosa ATCC 27853, 48 h, read-out: BIC50) of over 2250 µM and a BIC90 ([17]; S. aureus ATCC 25923, 48 h) of over 2.25 mM. The IC50 ([17]; Staphylococcus aureus, ATCC25923, S. aureus ATCC 25923, 48 h, read-out: BIC50) was 560 µM.

Work on `NNC(=O)c1cc(O)c(O)c(O)c1` [H-2, 3,4,5-trihydroxybenzohydrazide] yielded an inhibition at 25 µM [1] of 32 ± 0.1%, an inhibition at 40 µM [1] of 44.4 ± 1.7% and an inhibition at 50 µM [1] of 56 ± 1.1%. It also gave an inhibition at 75 µM [1] of 73.4 ± 0.3%, an inhibition at 100 µM [1] of 91.9 ± 0.2% and an IC50 [1] of 46 ± 0.9 µM.

In the case of `CC(=O)c1c(O)c2ccccc2oc1=O` [3AcHyC, 3-acetyl-4-hydroxycoumarin], the inhibition at 25 µM [1] is reported as 26.4 ± 1.3%, the inhibition at 40 µM [1] is reported as 35.8 ± 0.8% and the inhibition at 50 µM [1] is reported as 43.5 ± 3.1%. For the same compound, the inhibition at 75 µM [1] was 63.4 ± 0.4%, the inhibition at 100 µM [1] was 81.2 ± 0.2% and the IC50 [1] was 57.9 ± 1.6 µM.
